# In patent US5039806A, “Novel pharmacologically active compound pyridyl methylsulfinyl benzimidazole” (AB Hassle, priority 1983, dated 1991):
# Tested on: isolated rabbit gastric glands
# Assay: Inhibiting effect in vitro on acid secretion in isolated rabbit gastric glands (14C-aminopyrine accumulation)
# Assay type: cell-based
# Settings: Oryctolagus cuniculus, 1 h, logarithm of concentration (in M) giving 50% inhibition of aminopyrine accumulation; 5×10^-5 M histamine, 60 min, free base
# Experimental: I. Inhibiting effect in vitro on acid secretion in isolated rabbit gastric glands
# Isolated rabbit gastric glands were prepared as described by Berglindh et al., Acta physiol. scand. 1976. 96. 150-159. This method involves vascular perfusion of the rabbit stomach via the gastric arteries, scraping and scissor mincing of the separated gastric mucosa and collagenase (0.1%, Type I, Sigma Chemicals, St. Louis, MO. USA) digestion at 37° C. for 60-90 min. The glands are then harvested and filtered through nylon cloth to remove coarse fragments. The glands are thereafter incubated at 37° C. in a medium containing NaCl 132.4 mM, KCl 5.4 mM, […], NaH2 PO4 1.0 mM, MgSO4 1.2 mM, CaCl2 1.0 mM, glucose 10 mM, and 1 mg/ml rabbit albumine, pH 7.4.
# The acid secretion in the isolated gland preparation was recorded by measuring the uptake of ^14 C-labelled aminopyrine into the glands as described by Berglindh et al., Acta physiol. scand. 1976. 97. 401-414. Accumulation of aminopyrine in the glands indicates gastric acid secretion within the glands. The standard medium contained 10^-6 M ^14 C-aminopyrine (Amersham, Great Britain). After the incubation period, the glands were centrifuged, the supernatant was removed and the glands dried, weighed and dissolved in Soluene -350 (Packard, IU. USA). Samples of the supernatant and glands were separately counted in a scintillation counter. The accumulation of ^14 C-labelled aminopyrine in the glands was calculated as detailed by Berglindh et al., Acta physiol. scand. 1976. 97. 403.
# Glands were incubated for 60 min. in the presence of 5×10^-5 M histamine and the test compound to be studied. The free base of the test compound was dissolved in methanol. The final concentration of methanol was 1% in the incubation medium, having no influence on the aminopyrine accumulation ratio.
row,IC50 [µM],SMILES
1,0.2,"COc1c(C)cc2[nH]c([S+]([O-])Cc3nccc(C)c3C)nc2c1C (centres unmarked) [Example 1, 4,6-dimethyl-5-methoxy-2-[[(3,4-dimethyl-2-pyridinyl)methyl]sulfinyl]-1H-benzimidazole]"
2,1.26,"CCCCCCCOc1c(C)cc2[nH]c([S+]([O-])Cc3ncc(C)c(OC)c3C)nc2c1C (centres unmarked) [Example 2, 4,6-dimethyl-5-heptyloxy-2-[[(4-methoxy-3,5-dimethyl-2-pyridinyl)methyl]sulfinyl]-1H-benzimidazole]"
3,0.316,"COc1c(C)cnc(C[S+]([O-])c2nc3c(C)c(OC)c(C)cc3[nH]2)c1C (centres unmarked) [Example 8, 4,6-dimethyl-5-methoxy-2-[[(4-methoxy-3,5-dimethyl-2-pyridinyl)methyl]sulfinyl]-1H-benzimidazole]"
4,0.794,C=CCOc1c(C)cnc(C[S+]([O-])c2nc3c(C)c(C)c(C)c(C)c3[nH]2)c1C (centres unmarked) [Example 10]
5,0.316,COc1c(C)cnc(C[S+]([O-])c2nc3c(C)c(C)c(C)c(C)c3[nH]2)c1C (centres unmarked) [Example 12]
6,0.794,C=CCOc1c(C)cnc(C[S+]([O-])c2nc3c(C)c(C)c(C)cc3[nH]2)c1C (centres unmarked) [Example 14]
7,0.316,COc1c(C)cnc(C[S+]([O-])c2nc3c(C)c(C)c(C)cc3[nH]2)c1C (centres unmarked) [Example 16]
8,1.26,C=CCOc1c(C)cnc(C[S+]([O-])c2nc3c(C)c(C)cc(C)c3[nH]2)c1C (centres unmarked) [Example 18]
9,1,COc1c(C)cnc(C[S+]([O-])c2nc3c(C)c(C)cc(C)c3[nH]2)c1C (centres unmarked) [Example 20]
10,1,C=CCOc1c(C)cnc(C[S+]([O-])c2nc3c(C)c(C)ccc3[nH]2)c1C (centres unmarked) [Example 22]
11,1,C=CCOc1c(C)cnc(C[S+]([O-])c2nc3cc(C)c(C)cc3[nH]2)c1C (centres unmarked) [Example 24]
12,1.26,C=CCOc1c(C)cnc(C[S+]([O-])c2nc3c(C)ccc(C)c3[nH]2)c1C (centres unmarked) [Example 26]
13,1.26,C=CCOc1c(C)cnc(C[S+]([O-])c2nc3c(C)cccc3[nH]2)c1C (centres unmarked) [Example 28]
14,1.26,C=CCOc1c(C)cnc(C[S+]([O-])c2nc3cc(C)ccc3[nH]2)c1C (centres unmarked) [Example 30]
15,2.51,C=CCOc1c(C)cnc(C[S+]([O-])c2nc3cc(OC)ccc3[nH]2)c1C (centres unmarked) [Example 32]
16,10,C#CCOc1c(C)cnc(C[S+]([O-])c2nc3cc(OC)ccc3[nH]2)c1C (centres unmarked) [Example 34]
17,2.51,CCc1cnc(C[S+]([O-])c2nc3cc(OC)ccc3[nH]2)cc1OC (centres unmarked) [Example 35]
18,10,COc1ccc2[nH]c([S+]([O-])Cc3cc4c(cn3)CCCC4)nc2c1 (centres unmarked) [Example 37]
19,1.26,C=CCOc1c(C)cnc(C[S+]([O-])c2nc3c(C)cc(C)cc3[nH]2)c1C (centres unmarked) [Example 41]

row,IC50 [µM],SMILES
1,39.8,COc1c(C)cnc(C[S+]([O-])c2nc3cc(OCC#N)ccc3[nH]2)c1C (centres unmarked) [Example 43]
2,0.794,COc1c(C)cnc(C[S+]([O-])c2nc3cc(C4CCCCC4)ccc3[nH]2)c1C (centres unmarked) [Example 45]
3,0.794,COc1c(C)cnc(C[S+]([O-])c2nc3cc(CO)c(C)cc3[nH]2)c1C (centres unmarked) [Example 51]
4,5.01,C=CCOc1c(C)cnc(C[S+]([O-])c2nc3cc(C(=O)OC)c(C)cc3[nH]2)c1C (centres unmarked) [Example 55]
5,1.26,COCCOc1c(C)cc2[nH]c([S+]([O-])Cc3ncc(C)c(OC)c3C)nc2c1C (centres unmarked) [Example 58]
6,3.98,COCCOc1c(C)cc2[nH]c([S+]([O-])Cc3cc(C)c(C)cn3)nc2c1C (centres unmarked) [Example 60]
7,0.631,COc1c(C)cnc(C[S+]([O-])c2nc3c(C)c(C(C)=O)c(C)cc3[nH]2)c1C (centres unmarked) [Example 62]
8,1.58,CC(=O)c1c(C)cc2[nH]c([S+]([O-])Cc3ncc(C)cc3C)nc2c1C (centres unmarked) [Example 64]
9,1,CCC(=O)c1c(C)cc2[nH]c([S+]([O-])Cc3ncc(C)c(OC)c3C)nc2c1C (centres unmarked) [Example 66]
10,0.316,CCc1c(C)cc2[nH]c([S+]([O-])Cc3ncc(C)c(OC)c3C)nc2c1C (centres unmarked) [Example 68]
11,1.26,CCc1c(C)cc2[nH]c([S+]([O-])Cc3nccc(OC)c3C)nc2c1C (centres unmarked) [Example 70]
12,10,CCc1cc2[nH]c([S+]([O-])Cc3ncc(C)c(OC)c3C)nc2c(CC)c1C#N (centres unmarked) [Example 72]
13,0.631,COc1c(C)cnc(C[S+]([O-])c2nc3c(C)c(OC)c(C)c(C)c3[nH]2)c1C (centres unmarked) [Example 74]
14,1,CCc1cnc(C[S+]([O-])c2nc3cc(C)c(C)cc3[nH]2)cc1OC (centres unmarked) [Example 77]
15,10,COc1c(C)cnc(C[S+]([O-])c2nc3cc(C(=O)N4CCCCC4C)ccc3[nH]2)c1C (centres unmarked) [Example 79]
16,5.01,COc1c(C)cnc(C[S+]([O-])c2nc3c(ccc4ccccc43)[nH]2)c1C (centres unmarked) [Example 83]
17,0.501,COc1c(C)cnc(C[S+]([O-])c2nc3c4c(ccc3[nH]2)CCCC4)c1C (centres unmarked) [Example 87]
18,1.58,COc1c(C)cnc(C[S+]([O-])c2nc3cc(OCCCOc4ccccc4)ccc3[nH]2)c1C (centres unmarked) [Example 91]
19,0.251,C=CCOc1c(C)cnc(C[S+]([O-])c2nc3cc(CC)ccc3[nH]2)c1C (centres unmarked) [Example 94]

row,IC50 [µM],SMILES
1,0.794,COc1ccc2[nH]c([S+]([O-])Cc3ncc(C)c(OCCC(C)C)c3C)nc2c1 (centres unmarked) [Example 96]
2,2.51,COc1c(C)cnc(C[S+]([O-])c2nc3c(cc4c5c(cccc53)CC4)[nH]2)c1C (centres unmarked) [Example 98]
3,1.26,C=CCOc1c(C)cnc(C[S+]([O-])c2nc3cc(C(C)(C)C)ccc3[nH]2)c1C (centres unmarked) [Example 102]
4,2,COCCc1ccc2[nH]c([S+]([O-])Cc3ncc(C)c(OC)c3C)nc2c1 (centres unmarked) [Example 104]
5,1,COc1c(C)cnc(C[S+]([O-])c2nc3cc4c(cc3[nH]2)OC2(CCCCC2)O4)c1C (centres unmarked) [Example 106]
6,0.631,Cc1cnc(C[S+]([O-])c2nc3cc(C(C)C)ccc3[nH]2)c(C)c1OCC1CCCO1 (centres unmarked) [Example 111]
7,1.58,C=CCOc1c(C)cnc(C[S+]([O-])c2nc3cc(CCC(C)=O)ccc3[nH]2)c1C (centres unmarked) [Example 113]
8,0.398,COc1c(C)cnc(C[S+]([O-])c2nc3cc(Oc4ccccc4)ccc3[nH]2)c1C (centres unmarked) [Example 118]
9,0.501,COc1c(C)cnc(C[S+]([O-])c2nc3cc(OCCc4ccccc4)ccc3[nH]2)c1C (centres unmarked) [Example 120]
10,0.1,COc1c(C)cnc(C[S+]([O-])c2nc3cc(-c4ccccc4)ccc3[nH]2)c1C (centres unmarked) [Example 124]
11,1,C=CCOc1c(C)cnc(C[S+]([O-])c2nc3cc(Br)ccc3[nH]2)c1C (centres unmarked) [Example 129]
12,1,Cc1cnc(C[S+]([O-])c2nc3cc4c(cc3[nH]2)OCO4)c(C)c1C (centres unmarked) [Example 142]
13,0.794,CCc1cnc(C[S+]([O-])c2nc3cc(C(=O)OC)c(C)cc3[nH]2)cc1OC (centres unmarked) [Example 143]
14,0.631,Cc1ccnc(C[S+]([O-])c2nc3c(C)c(C)c(C)cc3[nH]2)c1C (centres unmarked) [Example 145]
15,0.398,Cc1cnc(C[S+]([O-])c2nc3c(C)c(C)c(C)cc3[nH]2)cc1C (centres unmarked) [Example 147]
16,0.631,Cc1cnc(C[S+]([O-])c2nc3c(C)c(C)c(C)cc3[nH]2)c(C)c1 (centres unmarked) [Example 149]
17,0.501,Cc1ccnc(C[S+]([O-])c2nc3c(C)c(C)cc(C)c3[nH]2)c1C (centres unmarked) [Example 151]
18,6.31,CCOc1c(C)cnc(C[S+]([O-])c2nc3c(C)c(C#N)c(C)cc3[nH]2)c1C (centres unmarked) [Example 153]
19,0.501,Cc1cnc(C[S+]([O-])c2nc3cc(C(F)(F)F)ccc3[nH]2)c(C)c1OCC1CCCO1 (centres unmarked) [Example 159]

# Tested on: gastric acid secretion in conscious dog
# Assay: Inhibiting effect in vivo on gastric acid secretion in conscious dog (gastric fistula, histamine-stimulated)
# Settings: intraduodenal (I.D.) dose 8 μmol/kg, free base in 0.5% Methocel
# Experimental: II. Inhibiting effect in vivo on gastric acid secretion in conscious dog
# Chronic gastric fistula dogs were used. These dogs have been surgically provided with a gastric cannula in the stomach and a duodenal fistula used for direct intraduodenal administration of test compounds. Following a 4 weeks' recovery period after surgery, tests were performed once a week on each dog. Food and water were withdrawn 18 hours before each test.
# Gastric acid secretion was induced by continuous infusion of histamine at individual doses (100-300 nmol/kg,h), resulting in submaximal secretion of gastric acid. At least 2 hours after onset of stimulation, when the gastric acid secretion had reached a steady level, the test compounds in the form of free base suspended in 0.5% Methocel® (90 HG, 15.000, Dow Chem. Corp.), were given intraduodenally at doses from 1 to 8 μmol/kg. The gastric juice was collected by free flow from the gastric cannula in consecutive 30 minutes samples for 3 hours. The samples were titrated to pH 7.0 with 0.1 M NaOH using a Radiometer automatic titrator and the acid output was calculated.
# The percent inhibition of acid secretion was calculated by comparing in each dog the acid output in the tests to the acid output in control tests when only the vehicle was given.
row,SMILES,% INHIB (peak inhibitory effect on acid secretion) [%]
1,COc1c(C)cnc(CSc2nc3cc4ccccc4cc3[nH]2)c1C [Example 84],85
2,COc1c(C)cnc(CSc2nc3cc(SC)ccc3[nH]2)c1C [Example 109],60
